From PMC4552634, “A New Set of Chemical Starting Points with Plasmodium falciparum Transmission-Blocking Potential for Antimalarial Drug Discovery” (PLoS ONE, 2015)

tested on: P. falciparum stage V gametocytes; assay: microbe, parasite or virus in culture; design: BacTiter-Glo ATP luminescence viability of purified stage V gametocytes in 384-well plates, per cent inhibition versus DMSO; settings: Plasmodium falciparum, 48 h, read-out: % Inhibition

Row | SMILES | inhibition at 5 µM [%]
1 | c1cc(CN2CCCCC2)cc(OCCCNc2ccnc3ccccc23)c1 [TCMDC-142315] | 42
2 | COc1ccc2c(N/N=C/c3ccccc3[N+](=O)[O-])ccnc2c1 [TCMDC-142140] | 101
3 | Nc1c2c(nc3ccc(Oc4ccc(Br)cc4Br)cc13)CCCC2 [TCMDC-142286] | 91.6
4 | CCOc1cc(NCCSCc2nc[nH]c2C)nc2ccccc12 [TCMDC-142294] | 26.1
5 | FC(F)(F)c1ccc2nccc(NN=Cc3ccc(Cl)cc3)c2c1 [TCMDC-142103] | 1.69
6 | Cc1ccccc1Nc1nc(NCc2ccccc2)nc2ccccc12 [TCMDC-142319] | 98.9
7 | CN=C(Nc1c(Cl)cccc1Cl)N(C)C [TCMDC-142121] | 5.95
8 | COc1cccc2c(NN=Cc3ccccc3Cl)cc(C)nc12 [TCMDC-142116] | 23.3
9 | CCCCNC(c1ccc(Cl)cc1)C(O)c1ccc(Cl)cc1 (stereo not shown) [TCMDC-142227] | -29.7
10 | CCCN(CCC)CCCOc1ccc(C(=O)c2c(-c3ccc(OCCCN(CCC)CCC)cc3)oc3ccc(Cl)cc23)cc1 [TCMDC-142256] | 105
11 | Cc1cc(NN=Cc2ccccc2Cl)c2ccc(F)cc2n1 [TCMDC-142162] | -52.4
12 | Cc1ccc(Cc2cnc(NCCSCc3ccc(CN4CCOCC4)o3)[nH]c2=O)cn1 [TCMDC-142303] | -5.99
13 | COc1ccc2c(NN=Cc3ccccc3)ccnc2c1 [TCMDC-142111] | 89.4
14 | CC(C)c1cc(Oc2c(I)cc(CCCc3ncc[nH]3)cc2I)ccc1O [TCMDC-142307] | -127
15 | CCOc1ccc2c(NN=Cc3c4ccccc4cc4ccccc34)cc(C)nc2c1 [TCMDC-142209] | 106
16 | COc1cccc2c(NN=Cc3cccc(Cl)c3)ccnc12 [TCMDC-142129] | 91.8
17 | CN=C(NO)NCCN(C)C [TCMDC-142305] | -1.82
18 | Cc1cc(NN=Cc2cccc(F)c2)c2cc(F)ccc2n1 [TCMDC-142173] | -60.6
19 | COc1ccc2nccc(NN=Cc3ccccc3Cl)c2c1 [TCMDC-142126] | 20.5
20 | COc1ccc(OC)c2c1CC1NCC2c2c(OC)ccc(OC)c21 (stereo not shown) [TCMDC-142224] | 2.64
21 | COc1ccc2nccc(NN=Cc3ccc(N(C)C)cc3)c2c1 [TCMDC-142145] | -119

Row | SMILES | inhibition at 5 µM [%]
22 | CCOc1ccc2c(NN=Cc3ccc(OC)c(OC)c3)cc(C)nc2c1 [TCMDC-142206] | 95.7
23 | COc1ccc2c(N/N=C/c3ccc([N+](=O)[O-])cc3)ccnc2c1 [TCMDC-142108] | 91.3
24 | Fc1cccc(C=NNc2ccnc3ccc(C(F)(F)F)cc23)c1 [TCMDC-142151] | -62.1
25 | CCOC(=O)c1cnc2c(OC)cc(OC)c(Cl)c2c1Nc1cccc(C)c1C [TCMDC-142242] | 64.1
26 | COc1ccc2nccc(NN=Cc3cccc(F)c3)c2c1 [TCMDC-142131] | 82.2
27 | COc1ccc2c(N/N=C/c3cccc([N+](=O)[O-])c3)ccnc2c1 [TCMDC-142138] | 79.5
28 | CCN(CC)CCCC(C)Nc1c(-c2ccc(OC)cc2)cnc2ccccc12 (stereo not shown) [TCMDC-142265] | 36.6
29 | COc1ccc(CSC2CCCCC23NC(=S)NC3=S)cc1 (stereo not shown) [TCMDC-142273] | 5.66
30 | Cc1cc(NN=Cc2cccc(F)c2)c2ccc(F)cc2n1 [TCMDC-142174] | -36.6
31 | COc1cccc2c(NN=Cc3ccc(Cl)cc3)ccnc12 [TCMDC-142106] | -26.4
32 | COc1ccc2nc3cc(Cl)ccc3c(Nc3ccc(O)c(CNC(C)C)c3)c2c1 [TCMDC-142278] | 57.9
33 | COc1ccc2nccc(NN=Cc3ccc(F)cc3)c2c1 [TCMDC-142132] | 32.1
34 | Cc1cc(NN=Cc2ccccc2F)c2cc(F)ccc2n1 [TCMDC-142171] | -53.4
35 | N#Cc1ccc(S(=O)(=O)N2C(c3cccc([N+](=O)[O-])c3)C(C(=O)c3ccccc3)N(C3CCCCC3)C2c2cccc([N+](=O)[O-])c2)cc1 (stereo not shown) [TCMDC-142230] | 43.9
36 | COc1ccc2c(NN=Cc3ccc(N(C)C)cc3)ccnc2c1 [TCMDC-142146] | 97.5
37 | COc1cccc2c(Oc3ccccc3C)ccnc12 [TCMDC-142320] | -32.5
38 | Cc1cc(NN=Cc2ccccc2Cl)c2cc(C(F)(F)F)ccc2n1 [TCMDC-142154] | -77.2
39 | CN(C(=O)c1ccc(Br)cc1)c1ccccc1[N+](=O)[O-] [TCMDC-142245] | -8
40 | Cc1cc(NN=Cc2ccc(Cl)cc2)c2cc(C(F)(F)F)ccc2n1 [TCMDC-142155] | -3.11
41 | COc1ccccc1-c1nc2nc(N)nc(N)c2nc1-c1ccccc1OC [TCMDC-142250] | 16.7
42 | COc1ccc(C=NNc2cc(C)nc3ccccc23)c2ccccc12 [TCMDC-142185] | 93.9

Row | SMILES | inhibition at 5 µM [%]
43 | CCCC(=O)c1cnc2c(Oc3cc(Cl)ncn3)cccc2c1Nc1ccccc1C [TCMDC-142329] | -26
44 | COc1ccc(C=Cc2cc(N)c3ccccc3n2)cc1Br [TCMDC-142285] | 39.4
45 | COc1ccc2ccccc2c1C=NNc1cc(C)nc2cc(C(F)(F)F)ccc12 [TCMDC-142238] | -35
46 | CCCCOP(=O)(OCCCC)C(=Cc1ccc(O)c2ccccc12)P(=O)(OCCCC)OCCCC [TCMDC-142336] | -25.7
47 | COc1cccc2c(Nc3ccccc3C)nc(Nc3ccccc3C)nc12 [TCMDC-142321] | 28.2
48 | Cc1cc(NN=Cc2ccc(F)cc2)c2ccc(C(F)(F)F)cc2n1 [TCMDC-142159] | -183
49 | CCCNc1nc(Nc2ccccc2C)nc2ccccc12 [TCMDC-142326] | 78.9
50 | CN(C)CCCOc1ccc(-c2csc(NC(N)=NCc3ccccc3)n2)cc1 [TCMDC-142339] | 35.3
51 | CCOc1ccc2c(NN=Cc3cccc(OC)c3OC)cc(C)nc2c1 [TCMDC-142205] | 40.8
52 | COc1ccc2c(NN=Cc3cccc(C)n3)cc(-c3ccccc3)nc2c1 [TCMDC-142120] | -50.4
53 | CCNc1c2ccc(Cl)cc2nc2ccc(OC)cc12 [TCMDC-142190] | -21.5
54 | CCOc1ccc2c(NN=Cc3cccc(OC)c3)cc(C)nc2c1 [TCMDC-142204] | 80.8
55 | Cc1ccc(O)cc1C[C@@H]1C(=O)CC[C@@]2(C)[C@H]1CC[C@]2(C)O [TCMDC-142266] | -40.3
56 | CC(C)OC(=O)c1ccccc1S(N)(=O)=O [TCMDC-142262] | -12.6
57 | FC(F)(F)c1ccc2nccc(NN=CC=Cc3ccccc3)c2c1 [TCMDC-142153] | -25.7
58 | CCn1c2ccccc2c2cc(C=NNc3cc(C)nc4ccccc34)ccc21 [TCMDC-142186] | 85.3
59 | c1ccc(COc2ccnc(NCCCOc3cccc(CN4CCCCC4)c3)c2)cc1 [TCMDC-142314] | 40
60 | COc1cc(OC)c(OC)cc1C=NNc1cc(C)nc2ccccc12 [TCMDC-142198] | 100
61 | CCCCCCCCNCC(O)c1cc(-c2ccc(Cl)cc2)nc2cc(C)ccc12 (stereo not shown) [TCMDC-142223] | -7.88

same assay, conditions: Plasmodium falciparum, 48 h; read-out: % Inhibition

Row | SMILES | inhibition at 5 µM [%]
62 | CCCCCCC(C)c1cc(O)c2c(c1)OC(C)(C)c1ccncc1-2 (stereo not shown) [TCMDC-142254] | 56.1
63 | CC1=CC(=O)[C@@H](O)[C@]2(C)[C@H]3[C@@]4(O)OC[C@@]35[C@@H](C[C@@H]12)OC(=O)C[C@H]5[C@@H](C)[C@H]4O [TCMDC-142261] | 50.1
64 | CCCCCCC(C)(C)c1cc(O)c2c(c1)OC(C)(C)c1ccncc1-2 [TCMDC-142253] | 30.7
